Experiments:
pH of treated water = assay type: physicochemical
Procedure: Water parameters were measured by a variety of methods. The pH was measured using a high sodium electrode (Oakton model 35805-05) with three point calibration and automatic temperature correction. The ORP (oxidative-reductive potential) of solutions was measured using an Oakton model 35805-15 ORP probe calibrated to the standard hydrogen electrode (SHE) using Thermo/Orion ORP standard 967901. Sodium ion concentration was measured using a Cole-Parmer ion selective electrode, EW-27504-30, with two point calibration of a sodium standard solution of NaCl. Chloride ion concentration was measured using a Cole-Parmer ion selective electrode, SC-27504-08, with two point calibration of a chloride standard solution of NaCl. All measurements using HACH methods were measured using a HACH DR900 colorimeter. Calcium, magnesium and total hardness concentrations were measured using HACH method 8030. Sulfate concentration was measured using HACH method 10248. Aluminum concentration was measured using HACH method 8012. Iron concentration was measured using HACH method 10249 modified with a longer reaction time to minimize interferences from organic impurities. Total suspended solids (TSS) concentration was measured using HACH method 8006 modified for smaller volumes. Turbidity was measured using HACH method 8237. ATP (adenosine triphosphate) concentration was measured using the LuminUltra 2nd Generation metabolic ATP measurement technology with the LuminUltra Quench Gone-Organic Modified sampling method, a PhotonMaster Luminometer and LumiCalc software. Acid producing bacteria (ABP) and sulfate reducing bacteria (SRB) cell culture concentrations were measured with standard 1 mL serial dilutions using Intertek APB and SRB culture media, 1% salinity.

[1] = Gel breaking of guar gum mixture; conditions: for Viscosity at 2 Hour Contact Time: 10 g/L guar gum, 35-40 °C
Procedure: Example 15: Gel Breaking ability for well squeeze to remove “polymer damage”. The use of the sodium peracetate oxidant formulation was tested for the depolymerization and break down of guar gum. […] The guar mixture was made by rapidly mixing 10 g/L food grade guar gum powder into a 10 g/L sodium chloride solution in distilled water. The blended mixture was heated to about 35-40° C. in a heated water bath for at least one hour to fully hydrate the guar. The mixture appeared translucent with fine, milky white suspended solids. […] The first was a control sample to which no oxidant was added. The remaining samples had increasing amounts of sodium peracetate oxidant added to them. The oxidant was prepared as described in Example 4 and the pH was adjusted to about 9.1 with sodium bisulfate before use. The oxidant was rapidly mixed with the guar mixture resulting in a pale yellow color. The mixtures were placed in a water bath at about 35-40° C. and the yellow color gradually faded away over the next hour. After two hours the samples were cooled to room temperature.

[2] = test system: sulfate reducing bacteria (SRB); test: Sulfate reducing bacteria serial dilution culture (Intertek SRB media); assay type: cell-based; conditions: produced water, Example 17, 30 min contact, no grow back

CC(=O)O[O-].[Na+] [sodium peracetate oxidant, sodium peracetate]
pH (pH of treated water; early flowback water, Example 19, 1.7 mmol/L oxidant, contact time 3 minutes): 6.83 | pH (pH of treated water; early flowback water, Example 19, 1.7 mmol/L oxidant, contact time 13 minutes): 6.87 | pH (pH of treated water; early flowback water, Example 19, 1.7 mmol/L oxidant, contact time 35 minutes): 6.88 | pH (pH of treated water; early flowback water, Example 19, 1.7 mmol/L oxidant, contact time 90 minutes): 6.89 | pH (pH of treated water; produced water (Denver-Julesburg), Example 17, 29 mg/L): 6.2 | pH (pH of treated water; produced water, Example 17, 29 mg/L plus 5 mg/L floc aid (Polymer B-40)): 6.3 | pH (pH of treated water; produced water, Example 17, 52 mg/L): 5.9 | pH (pH of treated water; produced water, Example 18, 0.30 mmol/L oxidant): 6.2 | Viscosity at 2 Hour Contact Time ([1]; oxidant conc. 65 mg/L): same as initial | Viscosity at 2 Hour Contact Time ([1]; oxidant conc. 220 mg/L): slightly reduced | Viscosity at 2 Hour Contact Time ([1]; oxidant conc. 440 mg/L): very reduced | preservation of guar mixture on standing at room temperature ([1]; about 65 mg/L oxidant, control lost viscosity overnight, biofilm after a week): retained its original viscosity and milky color for at least a week | SRB (cells/mL and log reduction) ([2]; 29 mg/L plus 5 mg/L floc aid): 5 log (no grow | SRB (cells/mL and log reduction) ([2]; 29 mg/L, untreated >>10,000 cells/mL): 5 log (no grow | SRB (cells/mL and log reduction) ([2]; 52 mg/L): 5 log (no grow

Source: patent US11827543B2, “Method for continuous supply of superoxide-containing peracetate oxidant solution” (Clean Chemistry, Inc., priority 2014, dated 2023)
